Measured values published in PubChem BioAssay AID1963832 (Molecular Pharmacology Branch, DTP, NCI, 2024).

Test system: 885724-159-R-J1-PDC complex spheroid viability
Assay: Anticancer human tumor 885724-159-R-J1-PDC patient-derived pancreatic adenocarcinoma cell line growth inhibition [POLQ]
Settings: for IC50: curve of first compound; for viability, T/C: stronger effect = lower value
Method in brief: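 Complex spheroid viability model combining PDC tumour cells with endothelial (HUVEC) and MSC stromal cells. Novobiocin, ART-558 or RP6685 were tested singly and in combination with standard and investigational anticancer drugs. Each was titrated in half-log steps from near clinical Cmax, or from 10 microM where Cmax was unknown.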

[1] = second compound 0.0316 µM, first compound 0.0316 µM
[2] = second compound 0.0316 µM, first compound 0.1 µM
[3] = second compound 0.0316 µM, first compound 0.316 µM
[4] = second compound 0.0316 µM, first compound 1 µM
[5] = second compound 0.0316 µM, first compound 3.16 µM
[6] = second compound 0.0316 µM, first compound 10 µM
[7] = second compound 0.1 µM, first compound 0.0316 µM
[8] = second compound 0.1 µM, first compound 0.1 µM
[9] = second compound 0.1 µM, first compound 0.316 µM
[10] = second compound 0.1 µM, first compound 1 µM
[11] = second compound 0.1 µM, first compound 3.16 µM
[12] = second compound 0.1 µM, first compound 10 µM
[13] = second compound 0.316 µM, first compound 0.0316 µM
[14] = second compound 0.316 µM, first compound 0.1 µM
[15] = second compound 0.316 µM, first compound 0.316 µM
[16] = second compound 0.316 µM, first compound 1 µM
[17] = second compound 0.316 µM, first compound 3.16 µM
[18] = second compound 0.316 µM, first compound 10 µM
[19] = second compound 1 µM, first compound 0.0316 µM
[20] = second compound 1 µM, first compound 0.1 µM
[21] = second compound 1 µM, first compound 0.316 µM
[22] = second compound 1 µM, first compound 1 µM
[23] = second compound 1 µM, first compound 3.16 µM
[24] = second compound 1 µM, first compound 10 µM
[25] = second compound 3.16 µM, first compound 0.0316 µM
[26] = second compound 3.16 µM, first compound 0.1 µM
[27] = second compound 3.16 µM, first compound 0.316 µM
[28] = second compound 3.16 µM, first compound 1 µM
[29] = second compound 3.16 µM, first compound 3.16 µM
[30] = second compound 3.16 µM, first compound 10 µM
[31] = second compound 10 µM, first compound 0.0316 µM
[32] = second compound 10 µM, first compound 0.1 µM
[33] = second compound 10 µM, first compound 0.316 µM
[34] = second compound 10 µM, first compound 1 µM
[35] = second compound 10 µM, first compound 3.16 µM
[36] = second compound 10 µM, first compound 10 µM
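Further: spheroids exposed to compounds for 7 days.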

Compound: CCc1cc2c(N3CCc4c(cc(Cn5ccnc5)cc4-c4cn(C)nc4C(F)(F)F)C3=O)ccnc2c(OC)n1 + Cc1cccc(N(C)C(=O)C2C(O)CCN2c2nc(C)cc(C(F)(F)F)c2C#N)c1
- IC50 (second compound 0.0316 µM): > 10 µM
- IC50 (second compound 0.1 µM): > 10 µM
- IC50 (second compound 0.316 µM): > 10 µM
- IC50 (second compound 1 µM): > 10 µM
- IC50 (second compound 3.16 µM): > 10 µM
- IC50 (second compound 10 µM): > 10 µM
- viability, T/C [1]: 94%
- viability, T/C [2]: 82.9%
- viability, T/C [3]: 81.8%
- viability, T/C [4]: 89.2%
- viability, T/C [5]: 74.3%
- viability, T/C [6]: 78.4%
- viability, T/C [7]: 104%
- viability, T/C [8]: 81.7%
- viability, T/C [9]: 88.6%
- viability, T/C [10]: 83.6%
- viability, T/C [11]: 84.7%
- viability, T/C [12]: 63.8%
- viability, T/C [13]: 96%
- viability, T/C [14]: 89.9%
- viability, T/C [15]: 84.4%
- viability, T/C [16]: 89.1%
- viability, T/C [17]: 82.5%
- viability, T/C [18]: 59.5%
- viability, T/C [19]: 83.8%
- viability, T/C [20]: 84.7%
- viability, T/C [21]: 92.4%
- viability, T/C [22]: 79.7%
- viability, T/C [23]: 85.5%
- viability, T/C [24]: 62.8%
- viability, T/C [25]: 94.2%
- viability, T/C [26]: 85.5%
- viability, T/C [27]: 86.6%
- viability, T/C [28]: 89.7%
- viability, T/C [29]: 79.4%
- viability, T/C [30]: 72.6%
- viability, T/C [31]: 92.8%
- viability, T/C [32]: 83.7%
- viability, T/C [33]: 86.4%
- viability, T/C [34]: 87.8%
- viability, T/C [35]: 72.7%
- viability, T/C [36]: 63.5%

Compound: COc1cc2cc(C(=O)CCC(=O)O)sc2cc1OC + Cc1cccc(N(C)C(=O)C2C(O)CCN2c2nc(C)cc(C(F)(F)F)c2C#N)c1
- IC50 (second compound 0.0316 µM): > 10 µM
- IC50 (second compound 0.1 µM): > 10 µM
- IC50 (second compound 0.316 µM): > 10 µM
- IC50 (second compound 1 µM): > 10 µM
- IC50 (second compound 3.16 µM): > 10 µM
- IC50 (second compound 10 µM): > 10 µM
- viability, T/C [1]: 108%
- viability, T/C [2]: 104%
- viability, T/C [3]: 100%
- viability, T/C [4]: 103%
- viability, T/C [5]: 107%
- viability, T/C [6]: 95.6%
- viability, T/C [7]: 114%
- viability, T/C [8]: 103%
- viability, T/C [9]: 96.9%
- viability, T/C [10]: 104%
- viability, T/C [11]: 99.2%
- viability, T/C [12]: 103%
- viability, T/C [13]: 99.5%
- viability, T/C [14]: 106%
- viability, T/C [15]: 89.2%
- viability, T/C [16]: 109%
- viability, T/C [17]: 98.4%
- viability, T/C [18]: 85.7%
- viability, T/C [19]: 105%
- viability, T/C [20]: 114%
- viability, T/C [21]: 93.1%
- viability, T/C [22]: 104%
- viability, T/C [23]: 105%
- viability, T/C [24]: 93.5%
- viability, T/C [25]: 116%
- viability, T/C [26]: 96.5%
- viability, T/C [27]: 103%
- viability, T/C [28]: 98%
- viability, T/C [29]: 104%
- viability, T/C [30]: 88.6%
- viability, T/C [31]: 101%
- viability, T/C [32]: 105%
- viability, T/C [33]: 99.2%
- viability, T/C [34]: 102%
- viability, T/C [35]: 87.7%
- viability, T/C [36]: 92.5%

Compound: COc1cccc2c1C(=O)c1c(O)c3c(c(O)c1C2=O)CC(O)(C(=O)CO)CC3OC1CC(N)C(O)C(C)O1 (stereo unspecified) + Nc1ccc(C#CCN(C(=O)Cc2ncc(C(F)(F)F)cc2C(F)(F)F)c2ccc(F)cc2)nn1
- IC50 (second compound 0.0316 µM): 0.158 µM
- IC50 (second compound 0.1 µM): 0.198 µM
- IC50 (second compound 0.316 µM): 0.15 µM
- IC50 (second compound 1 µM): 0.173 µM
- IC50 (second compound 3.16 µM): 0.163 µM
- IC50 (second compound 10 µM): 0.168 µM
- viability, T/C [1]: 66.2%
- viability, T/C [2]: 61%
- viability, T/C [3]: 34%
- viability, T/C [4]: 13.8%
- viability, T/C [5]: 5.73%
- viability, T/C [6]: 6.16%
- viability, T/C [7]: 75.9%
- viability, T/C [8]: 64.5%
- viability, T/C [9]: 40.4%
- viability, T/C [10]: 12.2%
- viability, T/C [11]: 6.2%
- viability, T/C [12]: 6.34%
- viability, T/C [13]: 72.5%
- viability, T/C [14]: 55.7%
- viability, T/C [15]: 37.7%
- viability, T/C [16]: 14.6%
- viability, T/C [17]: 5.39%
- viability, T/C [18]: 7.18%
- viability, T/C [19]: 76.7%
- viability, T/C [20]: 60.8%
- viability, T/C [21]: 38.1%
- viability, T/C [22]: 10.1%
- viability, T/C [23]: 6.54%
- viability, T/C [24]: 7.34%
- viability, T/C [25]: 74.9%
- viability, T/C [26]: 60.6%
- viability, T/C [27]: 35.2%
- viability, T/C [28]: 12.9%
- viability, T/C [29]: 5.75%
- viability, T/C [30]: 7.58%
- viability, T/C [31]: 70.8%
- viability, T/C [32]: 61.1%
- viability, T/C [33]: 36.1%
- viability, T/C [34]: 11.3%
- viability, T/C [35]: 5.42%
- viability, T/C [36]: 5.67%
